Values quoted from earlier work in patent US12268685B2, “Dosing regimen for injectable cetirizine” (JDP THERAPEUTICS LLC, priority 2019, dated 2025).

Settings: injection; cited from earlier work

For `OCCOCCN1CCN(C(c2ccccc2)c2ccc(Cl)cc2)CC1` (stereo not shown) [hydroxyzine], the Hemolysis is listed as “significant problem”.
